According to patent publication US20220023282A1 (priority 2018, published 2022):
Converted amounts (≈) assume the structure as drawn.

What was measured:
M. vaccae = details: cited from earlier work
M. fortuitum = details: cited from earlier work
M. chelonae = details: cited from earlier work
M. phlei = details: cited from earlier work
M. marinum = details: cited from earlier work
M. simiae = details: cited from earlier work
M. hiberniae = details: cited from earlier work
[1] = test system: Drug-susceptible M. tuberculosis; details: cited from earlier work
MOR M. tuberculosis = details: cited from earlier work
M. avium [2] = details: cited from earlier work
A549 = assay: Cell viability (MTT) of pulmonary epithelial cells; format: cell-based
Description: (§1) MTT is the tetrazolium dye 3-(4,5-dimethylthiazol-2-yl)-2,5-diphenyltetrazolium bromide which is converted by mitochondrial reductase to its insoluble formazan. In living cells, the insoluble formazan can be dissolved by adding the detergent dimethylsulfoxide for 15 minutes. The absorption of the respective dye is measured by a plate-reader at 590 nm. For the calculation of the viability after the incubation of the test compounds a positive and a negative control is included. Hank's balanced salt solution (HBSS) is used as a negative control and the resulting absorbance value is set to 100% viability. The positive control (1% Triton-X-100) is used to set 0% viability. Accordingly, the IC50 value of the test formulation can be determined by measuring a dose-response curve in log-scale.
(§2) These formulations (designated as 100%) were diluted with HBSS to give the following formulations for testing:
(§3) Cells were treated with the test formulations for 4 hours at 37° C. The viability of the cells after exposure was used to set up a dose-response curve in logarithmic scale. A sigmoidal fit enables the IC20, IC50, and IC80 calculations of the test substances.

M. scrofulaceum = details: cited from earlier work
M. maqeritense = details: cited from earlier work
[3] = human, in vivo, 400 mg; cited from earlier work
M. kansasii = details: cited from earlier work
[4] = in vivo, cited from earlier work
M. avium [5] = details: cited from earlier work; remark: listed apart in the source
M. abscessus [6] = details: cited from earlier work
M. malmoense = details: cited from earlier work
[7] = test system: Mycobacterium tuberculosis H37Rv; details: standardized broth-dilution assay; cited from earlier work
M. qordonae = details: cited from earlier work
M. abscessus [8] = details: cited from earlier work; remark: listed apart in the source
Calu-3 = assay: Cell viability (MTT) of pulmonary epithelial cells; format: cell-based
Description: as §1, §2, §3

M. smeqmatis mc2 155 = details: cited from earlier work
M. ulcerans = details: cited from earlier work

In the case of `COc1nc2ccc(Br)cc2cc1[C@@H](c1ccccc1)[C@@](O)(CCN(C)C)c1cccc2ccccc12` [bedaquiline, (1R,2S)-1-(6-bromo-2-methoxyquinolin-3-yl)-4-(dimethylamino)-2-(naphthalen-1-yl)-1-phenylbutan-2-ol], the MIC (M. vaccae) is listed as 0.03 µg/mL (≈ 0.054 µM), the MIC (M. fortuitum) is listed as 0.13 to 0.25 µg/mL and the MIC (M. chelonae) is listed as 0.06 to 0.5 µg/mL. For the same compound, the MIC (M. phlei) was 0.03 to 0.13 µg/mL, the MIC (M. marinum) was 0.003 µg/mL (≈ 0.0054 µM) and the MIC (M. simiae) was 0.03 µg/mL (≈ 0.054 µM). For the same compound, the MIC (M. hiberniae) was 0.03 µg/mL (≈ 0.054 µM), the MIC [1] was 0.06 µg/mL (≈ 0.108 µM) and the MIC (MOR M. tuberculosis) was 0.06 µg/mL (≈ 0.108 µM). For the same compound, the MIC99 (M. avium [2]) was 0.01 to 0.03 µg/mL, the “cytotoxic effect on cell viability as compared with vehicle” value (A549) was “minimal cytotoxic effect” and the MIC (M. scrofulaceum) was 0.03 µg/mL (≈ 0.054 µM). For the same compound, the MIC (M. maqeritense) was 0.03 µg/mL (≈ 0.054 µM), the “Cmax in the sputum” value [3] was 5000 ng/mL and the MIC (M. kansasii) was 0.03 µg/mL (≈ 0.054 µM). For the same compound, the “time to maximal plasma concentration after administration” value ([4]; po) was 4 to 6 h, the effective half-life [4] was 24 h and the “half life in tissues” value [4] was “more than 5 months”. The terminal half life [4] was 5.5 months, the MIC (M. avium [5]) was 0.03 to 0.13 µg/mL and the MIC (M. abscessus [6]) was 0.25 µg/mL (≈ 0.45 µM). The MIC (M. malmoense) was 0.50 µg/mL (≈ 0.9 µM), the MIC99 [7] was 0.015 to 0.12 µg/mL and the MIC (M. qordonae) was 0.03 µg/mL (≈ 0.054 µM). The MIC99 (M. abscessus [8]) was 0.25 to 0.5 µg/mL, the “cytotoxic effect on cell viability as compared with vehicle” value (Calu-3) was “minimal cytotoxic effect” and the MIC (M. smeqmatis mc2 155) was 0.12 µg/mL (≈ 0.216 µM). For the same compound, the MIC (M. ulcerans) was 0.5 µg/mL (≈ 0.9 µM).
